# How the values were obtained:
# C57BL/6 mice = assay: Naked GW2580 crystals co-injected SC with polystyrene or glass spheres, 2 weeks; assay type: in vivo
# Description: Naked crystals of GW2580 or saline-only (no drug control) were delivered intraperitoneally along with 500 μm alginate spheres for 2 weeks to C57BL/6 mice. […] Brightfield and fluorescence imaging was used to emphasize the respective presence or lack of fibrotic overgrowth on retrieved alginate spheres from either saline (control) or crystalline GW2580 treatment groups (FIG. 17C). […] GW2580 crystal testing (at doses of 0.5 and 5 mg/SC site) was also extended into the SC implant space with other immunogenic materials, ceramic glass (GL) and polymer polystyrene (PS). […] Retrieved materials where fixed overnight using 4% paraformaldehyde at 4° C. After fixation, alginate sphere or retrieved tissue samples were washed using 70% alcohol. The materials where then mixed with 4 degrees calcium-cooled Histogel (VWR, CA #60872-486). After the molds hardened, the blocks were processed for paraffin embedding, sectioning and staining according to standard histological methods. Single-cell suspensions of freshly excised tissues were prepared using a gentle MACS Dissociator (Miltenyi Biotec, Auburn, Calif.) according to the manufacturer's protocol. Single-cell suspensions were prepared in a passive PEB dissociation buffer (1×PBS, pH 7.2, 0.5% BSA, and 2 mM EDTA) and suspensions were passed through 70 μm filters (Cat. #22363548, Fisher Scientific, Pittsburgh, Pa.). This process removed the majority of cells adhered to the surface (>90%). All tissue and material sample-derived, single-cell populations were then subjected to red blood cell lysis with 5 ml of 1×RBC lysis buffer (Cat. #00-4333, eBioscience, San Diego, Calif., USA) for 5 min at 4° C. The reaction was terminated by the addition of 20 ml of sterile 1×PBS. The cells remaining were centrifuged at 300-400 g at 4° C. and resuspended in a minimal volume (˜50 μl) of eBioscience Staining Buffer (cat. #00-4222) for antibody incubation. All samples were then co-stained in the dark for 25 min at 4° C. with two of the fluorescently tagged monoclonal antibodies specific for the cell markers CD68 (1 μl (0.5 μg) per sample; CD68-Alexa647, Clone FA-11, Cat. #11-5931, BioLegend), Ly-6G (Gr-1) (1 μl (0.5 μg) per sample; Ly-6G-Alexa-647, Clone RB6-8C5, Cat. #108418, BioLegend), CD11b (1 μl (0.2 μg) per sample; or CD11b-Alexa-488, Clone M1/70, Cat. #101217, BioLegend). For alpha smooth muscle actin (fibrosis) analysis, additional cell aliquots were also fixed in 1% paraformaldehyde and permeabilized with 0.1% triton X-100 before being stained with Cy3-conjugated anti-mouse αSM actin antibody (1:100) (Sigma Aldrich, St. Louis, Mo.). Two ml of eBioscience Flow Cytometry Staining Buffer (cat. #00-4222, eBioscience) was then added, and the samples were centrifuged at 400-500 g for 5 min at 4° C. […]
# [1] = Drug levels in retrieved capsules, IP lavage and plasma in non-human primates (HPLC, LCMS); assay type: in vivo, cynomolgus macaques
# Description: LC pumps used are Agilent 1290 Infinity Binary pumps with CTC Pal Autosampler. MS is a Sciex API6500 triple quad. Sample Storage Conditions: −80° C. Sample Processing Extraction Volume: 10 μL. Extraction Method: Protein Precipitation. For example: GW2580 plasma concentration analysis: Sample Extraction Procedure: 1. 10 μL of calibration standards, quality controls, blanks and samples were aliquoted into a 96-well plate. 2. 60 μL of IS-SS (internal standard) (100 ng/mL QNZ, carbutamide, chrysin, carbamazepine, glafenine, dexamethasone, glyburide, and d4AEA in acetonitrile) were added to all samples except for double blanks. 60 μL of acetonitrile was then added to double blanks. 3. The plate was covered and samples mixed, followed by centrifugation for 5 minutes at 3000 rpm at 4° C. 4. 50 μL of supernatant was then transferred into a clean 96-well plate using a liquid handler. 5. Samples were diluted with 100 μL of MilliQ water, and the plate was once again covered and mixed for about a minute prior to sample injection onto the LC-MS/MS at 1.00-2,500 ng/mL. LC Conditions: Waters BEH C18, 50×2.1 mm, 1.7 μm. Run temperature: 50° C. Mobile Phase A, 95:5:0.1 (v:v:v) Water:Acetonitrile:Formic Acid (1.2 min). Mobile Phase B, 50:50:0.1 (v:v:v) Methanol:Acetonitrile:Formic Acid (1.3 min). Flow: 0.8 mL/min. Injection Volume: 2 μL. MS Conditions: MS/MS: API-6500. Ionization Method: Electrospray. Positive/Negative Ion: Positive. Resolution: Unit. Source Temperature (° C.): 550. Transitions (m/z): Compound ID: GW2580 367.0/245.1 Da. Int Std ID: QNZ 357.0/197.1 Da. Data Analysis: Acceptance Criteria ‘±20% (±25% at the LLOQ), Regression Type, Linear (1/(x*x)), Accepted Curve Range 1.00-2,500 ng/mL Carryover 0.00%. HPLC
# Calibration curves were obtained on an Agilent LC 1100 Series (Agilent Technologies, CA, USA) equipped with binary pump (G1312 Å), auto-sampler (G1313 Å), degasser and photodiode detector (DAD, G1315 Å). Chemstation was used for system control, data processing and data acquisition for LC. Chromatographic separation was achieved by an analytical Waters Atlantis T3 C18 column (5 μm, 4.6×250 mm). The temperature of column and auto-sampler were kept at 20° C.
# Stock solution of GW2580 was prepared in dimethyl sulfoxide (DMSO) at a target concentration of 10 mg/ml and appropriate dilutions were made in DMSO to prepare standards (0.25-2500 μg/ml) for calibration curve of GW2580. 10 μl of standard solution was injected and the analytes were eluted by gradient mode using (A) acetonitrile and (B) 0.1% formic acid in water at a constant flow rate of 1 ml/min. The gradient conditions of mobile phase were as follows: 0 min 10% A, 10 min 95% A, 14 min 95% A, 16 min 10% A, 20 min 10% A.
smiles,measurement,setting,value
"COc1ccc(COc2ccc(Cc3cnc(N)nc3N)cc2OC)cc1 [GW2580, 5-[[3-Methoxy-4-[(4-methoxyphenyl)methoxy]phenyl]methyl]-2,4-pyrimidinediamine]",responding macrophages (FACS),"C57BL/6 mice; SC-implanted PS and GL 0.5 mm spheres, 2 weeks",significant reductions in responding macrophages
same,drug extracted from nearby tissue,"C57BL/6 mice; all implant groups, 2 weeks",large quantities of remaining drug
same,anti-fibrotic effect,"C57BL/6 mice; ceramic glass (GL) spheres, SC, no histology",anti-fibrotic effects were also observed
same,anti-fibrotic effect (H&E and Masson's Trichrome),"C57BL/6 mice; polystyrene (PS) spheres, SC, 0.5 and 5 mg/SC site, 2 weeks",significant anti-fibrotic effects
same,remaining drug extracted from retrieved capsules,"[1]; 0.5 mm capsules, IP space, 3 months",little to no drug
same,remaining drug extracted from retrieved capsules,"[1]; 1.5 mm capsules, IP and SC sites, up to 6 months",additional stores
same,plasma drug concentration,[1]; at the termination of the study,below detection limits
same,IP space (lavage) drug concentration,"[1]; beyond 4 weeks, below detectable limit",< 0.5 ng/mL
same,concentration at 4 weeks,"[1]; cynomolgus monkey, intraperitoneal space lavage fluid, ip, 4 weeks post-implantation",2 to 3 ng/mL
